Results from patent publication US20230293544A1, “METHODS, DOSAGE REGIMENS, AND COMPOSITIONS FOR TREATING HIDRADENITIS” (PFIZER INC., priority 2022, published 2023).
Several values for one entry are separate records, joined by “and”; a condition that tells them apart may be missing. Equal values may be shown once.

Experiments:
[1] = system: patients with moderate to severe HS; conditions: cited from earlier work
[2] = system: human patients with moderate to severe hidradenitis suppurativa (HS); assay: Safety and tolerability in the phase 2A HS study (TEAEs, vital signs, laboratory abnormalities); assay type: in vivo
Method: The safety and tolerability of PF-06700841 over time was assessed using incidence of treatment-emergent adverse events (TEAEs), vital signs, incidence of specific clinical laboratory abnormalities including but not limited to hemoglobin, neutrophils, platelets, lymphocytes, lipids, eGFR, liver function tests (LFTs) and CPK.
All participants who received at least one dose of randomized study medication and have a baseline are included in the full analysis set (FAS), the population for the efficacy analysis. The safety analysis set (SAS) includes all participants who received at least one dose of investigational product. The HiSCR response data at week 16 comparing active treatment group and placebo group was to be analyzed using the Cochran Mantel Hanzel (CMH) test with Minimum Risk (MR) weight strategy after treating missing data as non-responders, adjusting for the stratification factor of prior anti-TNF failure status. Due to very small number of participants with concomitant use of antibiotics status at baseline in some subgroups, this was not included as stratum factor in the model. Hochberg's step-up procedure was employed to address any multiplicity arising from the analysis of 3 different treatments within the same study and overall familywise error rate was controlled at 0.1 level. All the continuous secondary endpoints were analyzed using ANCOVA model, where missing observation were imputed using multiple imputation (MI) method.

[3] = system: human patients with moderate to severe hidradenitis suppurativa (HS); assay: Phase 2A double-blind, parallel group study of efficacy vs placebo in hidradenitis suppurativa; assay type: in vivo
From the text: This study provided data on efficacy, safety, tolerability, and pharmacokinetics of the therapeutic agents being examined in the oral treatment of moderate to severe HS. […] This included an up-to-6-week Screening Period, a 16-week Dosing Period and a 4-week Follow-up Period. The study enrolled a total of approximately 192 participants (expected to provide approximately 156 completers). Following the screening period, participants who meet eligibility criteria at the baseline visit were randomly assigned to receive 1 of 6 treatments. One oral dose level of each therapeutic agent, one of which was [(1S)-2,2-difluorocyclo-propyl][(1R,5S)-3-{2-[(1-methyl-1H-pyrazol-4-yl)amino]pyrimidin-4-yl}-3,8-diazabicyclo[3.2.1]oct-8-yl]methanone (45 mg QD), or matching placebo in a 3:1 ratio was investigated. For analysis, placebo groups were combined to yield final therapeutic agent:placebo ratio of 1:1:1:1 for each therapeutic agent and pooled placebo. No more than 30% of enrolled participants were inadequate anti-TNF responders. Participants were stratified according to whether they were an inadequate anti-TNF responder or not.
Additionally, no more than 20% of enrolled participants entered the study on a background of concomitant oral antibiotic therapy for treatment of HS; the dosing regimen (dose and frequency) must have been stable for at least 8 weeks (56 days) prior to the baseline (Day 1) visit and remained stable throughout study participation. Antibiotics taken on an “as needed” (PRN) basis were not considered a stable dose. Participants were stratified according to whether they were on a background of concomitant antibiotic therapy or not. The chronic toxicology package for each asset supported the planned study treatment duration of 16 weeks. Hidradenitis suppurative clinical response, the primary endpoint used, is defined as: […]
at least a 50% reduction in the total abscess and inflammatory nodule (AN) count relative to baseline, and no increase in abscess count, and no increase in draining fistula count.
The above Examples were a phase 2A double-blind, parallel group study assessing the efficacy of PF-06700841, a dual inhibitor of human tyrosine kinase 2 (TYK2) and Janus kinase 1 (JAK1), compared to Placebo in human patients with moderate to severe hidradenitis suppurativa (HS).
This was a randomized, double-blind, parallel-group multi-center study that enrolled approximately 192 participants with moderate to severe HS (with approximately 156 completers). Participants were randomized to PF-06700841 (along with two other treatments studied contemporaneously) and matching placebo in a 3:1 ratio. Each randomized participant was followed for a 16-week dosing period and a 4-week follow-up period. For analysis, placebo groups were combined to yield a 1:1:1:1 ratio for each treatment and pooled placebo. No more than 30% participants were enrolled with inadequate anti-TNF response and no more that 20% of the participants were on background antibiotic therapy, and stratified randomization strategy was adopted for this study. Efficacy data from all randomized participants until week 16 are in the scope of this report.
The primary objective of the study was to evaluate the efficacy and safety of PF-06700841 vs placebo in participants with HS. The primary efficacy endpoint was percentage of participants with HiSCR response (50% reduction from baseline in abscess and inflammatory nodule (AN) count, with no increase in abscess and draining fistula count from baseline) at week 16. […]

[4] = Population PK analysis in the phase 2A HS study; assay type: in vivo, human; conditions: preliminary population PK analysis
Method: Blood was collected to obtain the PK samples at pre-dose, Weeks 1, 2, 4, 6, 8, and 16, and at 0.5-, 1-, 2-, and 4-hours post-dose on Week 8. The available data was analyzed using population PK modeling.

Compound | Rank-ordered secondary outcomes (lesions, pain, modified Sartorius score) vs placebo ([1]; Week 12, PIONEER II only) | Clinical response rate (HiSCR) at Week 12, PIONEER I ([1]; adalimumab weekly, PIONEER I, Week 12) | Clinical response rate (HiSCR) at Week 12, PIONEER II ([1]; adalimumab weekly, PIONEER II, Week 12) | Safety and tolerability ([2]; 16-week dosing) | Deaths or cases of herpes zoster/simplex in the study ([2]; in vivo) | Severity of the majority of treatment-emergent adverse events (TEAEs) ([2]; in vivo) | Hazard ratio for time to first flare ([3]; Cox proportional model, vs placebo) | Difference from placebo in Skin Pain NRS30 response rate at week 16 ([3]; PGA-Skin Pain NRS at worst, participants with baseline score 3, LOCF) | Probability of flare, Kaplan Meier plot of time to first flare (FIG. 5) ([3]; at 16 weeks, FAS, versus placebo) | HiSCR response rate at week 16 among Hurley Stage II participants ([3]; baseline Hurley Stage II, week 16) | HiSCR response rate at week 16 among Hurley Stage III participants ([3]; baseline Hurley Stage III, week 16) | More participants compared to placebo achieving total AN count of 0, 1 or 2 at week 16 ([3]; difference from placebo, week 16) | Difference from placebo (δ) in percentage of participants experiencing at least one flare by week 16 ([3]; flare = at least 25% increase in AN count with minimum increase of 2 relative to baseline) | Percentage of Participant Achieving HISCR Response at Week 16, Overall Response n/N (%) ([3]; overall population, FAS, NRI, week 16, 45 mg QD oral) | Difference from Placebo in percent change from baseline at week 16 for the IHS4 score ([3]; week 16) | HiSCR response over time, plot (FIG. 2) ([3]; week 16, versus placebo) | Exposures in HS compared to healthy or other patient populations [4]
adalimumab | significantly greater improvement than the placebo groups | 41.8% | 58.9% |  |  |  |  |  |  |  |  |  |  |  |  |  | 
Cn1cc(Nc2nccc(N3C[C@H]4CC[C@@H](C3)N4C(=O)[C@@H]3CC3(F)F)n2)cn1 [PF-06700841, [(1S)-2,2-difluorocyclo-propyl][(1R,5S)-3-{2-[(1-methyl-1H-pyrazol-4-yl)amino]pyrimidin-4-yl}-3,8-diazabicyclo[3.2.1]oct-8-yl]methanone] |  |  |  | generally safe and well tolerated | no deaths or cases of herpes zoster/simplex | mild and moderate | 0.4 | 6.5% | lowest probability of flare at 16 weeks | 59.4% | 40% | 15.6% | −22.3% | 51.9% and 27/52 (51.9) % | −14.6% | highest response at week 16 | expected exposures in HS appear to be achieved
